Experimental data: patent US8883789B2, “Piperazine derivatives and their use as positive allosteric modulators of mGluR5 receptors” (Boehringer Ingelheim International GmbH, priority 2011, dated 2014)

Biological target: T1, human recombinant mGluR5 (Homo sapiens, UniProt P41594)
T1 construct: expressed in transfected cells; hygromycin and geneticin selection
Experiment: positive modulation of mGluR5, calcium based FLIPR assay
Settings: HEK 293 cell line expressing human recombinant mGluR5; Ca2+ peak height after glutamate at approximately 5% basal stimulation; nonlinear regression
Outline: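 HEK293 cells with tetracycline-free induction, Calcium-4 dye-loaded in Ringer pH 7.4. Compound added 5 min before glutamate at ~5% of maximal effect, 1% DMSO. EC50 from peak Ca2+ fluorescence, normalized to basal glutamate (100%) and 10 μM CDPPB (200%), via nonlinear regression.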

T1 sequence (P41594 21-1212): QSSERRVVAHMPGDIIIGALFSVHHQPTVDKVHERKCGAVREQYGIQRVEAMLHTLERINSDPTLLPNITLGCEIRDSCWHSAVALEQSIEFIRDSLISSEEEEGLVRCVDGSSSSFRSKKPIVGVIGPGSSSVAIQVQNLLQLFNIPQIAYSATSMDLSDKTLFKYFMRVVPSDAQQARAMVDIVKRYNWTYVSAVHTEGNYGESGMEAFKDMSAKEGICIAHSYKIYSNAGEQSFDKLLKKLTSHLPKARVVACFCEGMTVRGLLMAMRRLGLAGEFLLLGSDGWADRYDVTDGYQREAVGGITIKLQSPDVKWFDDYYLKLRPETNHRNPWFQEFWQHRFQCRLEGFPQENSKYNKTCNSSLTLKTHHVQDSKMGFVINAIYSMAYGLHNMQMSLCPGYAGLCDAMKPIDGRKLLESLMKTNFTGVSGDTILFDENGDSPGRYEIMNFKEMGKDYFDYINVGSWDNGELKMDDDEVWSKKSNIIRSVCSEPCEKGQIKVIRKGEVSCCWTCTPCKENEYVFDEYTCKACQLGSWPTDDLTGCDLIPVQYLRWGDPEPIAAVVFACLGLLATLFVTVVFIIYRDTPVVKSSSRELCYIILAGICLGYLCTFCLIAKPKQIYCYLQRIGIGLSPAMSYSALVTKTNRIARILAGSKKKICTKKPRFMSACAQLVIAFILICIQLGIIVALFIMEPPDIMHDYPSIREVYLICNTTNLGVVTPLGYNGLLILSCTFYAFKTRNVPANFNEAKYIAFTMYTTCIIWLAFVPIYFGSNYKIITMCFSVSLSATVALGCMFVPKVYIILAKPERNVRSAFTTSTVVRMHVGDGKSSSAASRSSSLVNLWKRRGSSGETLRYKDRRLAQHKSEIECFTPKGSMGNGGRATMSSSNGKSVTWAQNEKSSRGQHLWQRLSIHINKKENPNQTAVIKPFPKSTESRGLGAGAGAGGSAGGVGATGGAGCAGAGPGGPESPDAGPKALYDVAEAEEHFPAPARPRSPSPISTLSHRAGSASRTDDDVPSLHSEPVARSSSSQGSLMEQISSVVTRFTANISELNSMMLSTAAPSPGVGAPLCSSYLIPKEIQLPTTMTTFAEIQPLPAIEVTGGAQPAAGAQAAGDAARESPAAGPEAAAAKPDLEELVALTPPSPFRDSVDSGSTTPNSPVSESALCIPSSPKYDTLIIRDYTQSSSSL

SMILES | EC50 [nM]
COc1cc(Cl)cc(C(=O)N2CCN(C(=O)c3nnn(-c4ccccc4)n3)C(C)(C)C2)n1 [Example 165] | 25
CC1(C)CN(C(=O)c2cccc(C(F)(F)F)c2)CCN1C(=O)c1nnn(-c2ccccc2)n1 [Example 166] | 15
CC(C)c1cccc(C(=O)N2CCN(C(=O)c3nnn(-c4ccccc4)n3)C(C)(C)C2)c1 [Example 167] | 15
CC1(C)CN(C(=O)c2cccc(C(F)(F)F)n2)CCN1C(=O)c1nnn(-c2ccccc2)n1 [Example 168] | 15
CC1(C)CN(C(=O)c2cc(Cl)c3c(c2)OCCO3)CCN1C(=O)c1nnn(-c2cccc(Cl)c2)n1 [Example 171, [4-(8-Chloro-2,3-dihydro-benzo[1,4]dioxine-6-carbonyl)-2,2-dimethyl-piperazin-1-yl]-[2-(3-chloro-phenyl)-2H-tetrazol-5-yl]-methanone] | 56
COc1cc(Cl)cc(C(=O)N2CCN(C(=O)c3nnn(-c4cccc(Cl)c4)n3)C(C)(C)C2)n1 [Example 172] | 26
CC1(C)CN(C(=O)c2cccc(C3CCOCC3)n2)CCN1C(=O)c1ncn(-c2cccc(Cl)c2)n1 [Example 176, [1-(3-Chloro-phenyl)-1H-[1,2,4]-triazol-3-yl]-{2,2-dimethyl-4-[6-(tetrahydro-pyran-4-yl)-pyridine-2-carbonyl]-piperazin-1-yl}-methanone] | 366
CC1(C)CN(C(=O)c2cccc(C3CCCC3)n2)CCN1C(=O)c1ncn(-c2cccc(Cl)c2)n1 [Example 177, [1-(3-Chloro-phenyl)-1H-[1,2,4]-triazol-3-yl]-[4-(6-cyclopentyl-pyridine-2-carbonyl]-2,2-dimethyl-piperazin-1-yl]-methanone] | 37
Cn1c(CC2CCCC2)nc2ccc(C(=O)N3CCN(C(=O)c4ncn(-c5ccccc5)n4)C(C)(C)C3)cc21 [Example 179, [4-(2-cyclopentylmethyl-3-methyl-3H-benzoimidazole-5-carbonyl)-2,2-dimethyl-piperazin-1-yl]-(1-phenyl-1H-[1,2,4]-triazol-3-yl)-methanone] | 153
CC1(C)CN(C(=O)c2cccc(C3CC3)n2)CCN1C(=O)c1nnn(-c2ccccc2)n1 [Example 180, [4-(6-Cyclopropyl-pyridine-2-carbonyl)-2,2-dimethyl-piperazin-1-yl]-(2-phenyl-2H-tetrazol-5-yl)-methanone] | 16
CC1(C)CN(C(=O)c2cccc(C3CC3)n2)CCN1C(=O)c1nnn(-c2cccc(Cl)c2)n1 [Example 182] | 28
CC1(C)CN(C(=O)c2cccc(C3CC3)n2)CCN1C(=O)c1ncn(-c2ccccc2)n1 [Example 183] | 49

Second part, the compound after the results:

EC50 [nM] | SMILES
27 | COc1cc(Cl)cc(C(=O)N2CCN(C(=O)c3nnn(-c4cccc(F)c4)n3)C(C)(C)C2)n1 [Example 169, [4-(4-Chloro-6-methoxy-pyridine-2-carbonyl)-2,2-dimethyl-piperazin-1-yl]-[2-(3-fluoro-phenyl)-2H-tetrazol-5-yl]-methanone]
37 | CC1(C)CN(C(=O)c2cc(Cl)c3c(c2)OCCO3)CCN1C(=O)c1nnn(-c2cccc(F)c2)n1 [Example 170]
19 | CC1(C)CN(C(=O)c2cccc(Cl)c2)CCN1C(=O)c1ncn(-c2cccc(Cl)c2)n1 [Example 173, [4-(3-Chloro-benzoyl)-2,2-dimethyl-piperazin-1-yl]-[1-(3-chloro-phenyl)-1H-[1,2,4]triazol-3-yl]-methanone]
221 | Cc1cc(C(=O)N2CCN(C(=O)c3ncn(-c4cccc(F)c4)n3)C(C)(C)C2)oc1C [Example 174, [4-(4,5-Dimethyl-furan-2-carbonyl)-2,2-dimethyl-piperazin-1-yl]-[1-(3-fluoro-phenyl)-1H-[1,2,4]triazol-3-yl]-methanone]
104 | CC1(C)CN(C(=O)c2cc(Br)c(Br)o2)CCN1C(=O)c1ncn(-c2cccc(F)c2)n1 [Example 175]
19 | Cc1cccc(-n2cnc(C(=O)N3CCN(C(=O)c4cccc(C5CC5)n4)CC3(C)C)n2)c1 [Example 181]
33 | CC1(C)CN(C(=O)c2cccc(C3CC3)n2)CCN1C(=O)c1ncn(-c2cccc(F)c2)n1 [Example 184]
